Assay results as given in patent EP0433074B1, “Method for treating cardiac malfunction” (THE GENERAL HOSPITAL CORPORATION, priority 1989, dated 1991).

Assays:
[1] = test system: rat abdominal aortic rings; experiment: Vascular tension in isolated aortic rings; set-up: species or system Sprague-Dawley rats; settings: KCl 20 mM; above resting tension of 1.5 g
Experimental: Experiments were conducted to determine the vasoconstrictive properties of HIF. The protocol for these experiments is described in greater detail in Example V. In general, Sprague-Dawley rats were anesthetized and the abdominal aorta surgically removed. 2 mm vascular rings were attached to a force transducer and bathed in buffer, and tension adjusted to 1.5 g. Tissue viability was documented and vasoconstrictive responses calibrated using known vasoconstrictors such as potassium chloride and norepinephrine. Blood vessels thus prepared were then tested with varing doses of HIF.
Sprague-Dawley rats weighing 250-350 grams were anesthetized with pentobarbital intraperitoneally, the abdominal aorta rapidly excised and dissected free of all loose connective tissue in cold Krebs-Henseleit bicarbonate buffer of the following composition, mM: NaCl, 118.3; KCl, 4.7; MgSo₄, 1.2; KH₂PO₄, 1.2; CaCl₂, 2.5; NaHCO₃, 25.0; Na-EDTA, 0.016; and glucose, 11.1. 2-3 mm (length) vascular rings were excised, attached to a force transducer and bathed in a water jacketed (37°C) organ chamber containing 5 ml of the above buffer gassed with 95% O₂ and 5% CO₂. […] force measurements were obtained with a Grass force displacement transducer attached to a Grass 79D polygraph DC amplifier, and recorded with a two-channel Kipp Zonen recorder. […]

cardiac myocytes = experiment: Myocyte contractility (amplitude of systolic motion, beating frequency), phase contrast video motion detector; format: cell-based, rat
Experimental: In general, the amplitude of contraction (i.e., degree of positive inotropy) was measured in single, beating myocytes as the amplitude of systolic motion (ASM) using a phase contrast video motion detector system. The same detector system was used to measure toxicity, which is evidenced as a decrease in ASM, a change in the position of maximal relaxation (MR), and an increase in beating frequency.
(§1) Myocardial cells were isolated from ventrical fragments of the hearts of 1-day old Sprague-Dawley rats by serial trypsinizations in a Ca²⁺ and Mg²⁺-free Hanks Buffered Salt Solution (HBSS) as previously described (Yagev, S., et al., In Vitro, 20:893-898 (1984)). Trypsinized cells were decanted into HamF10 medium containing 20% serum and antibiotics and centrifuged at 1000 r.p.m. for 10 minutes. The cell pellet was resuspended in HamF10 medium containing fetal calf serum and 10% horse serum with 0.1% penicillin-streptomycin, and diluted to a concentration of 5 x 10⁵ cells/ml. For measurements of cytosolic free calcium concentration ([Ca²⁺]i), the cells were plated on rectangular glass coverslips (13 x 30 mm) and for measurements of cell contractility, plated on circular glass coverslips (12 mm), and both types of coverslips placed inside petri dishes. For measurements of ⁸⁶Rb⁺ uptake cells were plated in petri dishes (1 - 1.5 x 10⁶ cells/35mm dish). All cultures were incubated in humidified 5% CO₂, 95% air at 37°C.
Contractility, determined as amplitude of systolic cell motion (ASM), and beating frequency were measured in individual cells using a phase contrast microscope video motion detector system according to the method of Barry, et al. (Barry, W.H., et al., Circ. Res., 56:231-241 (1985)). A glass coverslip with attached cultured myocytes was placed in a chamber provided with inlet and exit ports for medium perfusion. The chamber was enclosed in a Lucite box at 37°C and placed on the stage of an inverted phase contrast microscope. The cells were covered with 1 ml medium containing HIF or ouabain. During continuous perfusion, medium bathing a cell in the center of a coverslip exchanged with a time constant of 15 seconds at a flow rate of 0.96 ml/minutes. Image was magnified using a 40x objective, and motion monitored by a low-light-level TV camera attached to the microscope and calibrated with 262 raster lines. […] The analog voltage output from the motion detector is filtered at low pass filter and calibrated to indicate actual um of motion, and the derivative is obtained electronically and recorded as velocity of motion in um/sec. […] The changes in contractility induced by ouabain or HIF were calculated in comparison with the contractility of the same cells before addition of ouabain or HIF.

[2] = test system: cultured cardiac myocytes; experiment: Cytosolic free Ca²⁺ measured with fura-2 in cultured cardiac myocytes; format: cell-based, rat; settings: ouabain 10^-6 M, steady state, control 138±3
Experimental: as §1, with “For measurements of ⁸⁶Rb⁺ uptake cells were plated in petri dishes (1 - 1.5 x 10⁶ cells/35mm dish). All cultures were incubated in humidified 5% CO₂, 95% air at 37°C.” left out
Changes in [Ca²⁺] i were detected using the fluorescent probe, fura-2 (Grynkiewicz, G., et al., J. Biol. Chem., 260:3440-3450 (1985)). […] The fluorescence was continuously recorded using a PTI DeltaScan 1 spectrofluorometer. […] Values of [Ca²⁺]i were calculated from the ratio R = F₃₄₀/F₃₈₀ [formula] […] Rmax and Rmin were determined in separate experiments using digitonin to equilibrate [Ca²⁺]i with ambient [Ca²⁺] […] Background autofluorescence was measured in unloaded cells and substracted from all measurements.

[3] = test system: neonatal rat cardiac myocytes; experiment: ⁸⁶Rb⁺ influx (Na⁺ pump activity) in cultured cardiac cells; format: cell-based; settings: ouabain 5 mM, 20 min preincubation
Experimental: Na⁺ pump activity was estimated in the cultured cardiac cells as the difference in ⁸⁶Rb⁺ uptake observed in the absence and presence of 5 mM ouabain, following the method of Panet et al (Panet, R., et al., J. Memb. Biol., 70:165-169 (1982)). To insure saturation binding, myocytes were preincubated for 20 minutes with HIF (2 unit/ml) or ouabain (5 mM) or both prior to addition of ⁸⁶Rb⁺ to run the 10 minute flux. Myocyte monolayers were washed with HEPES buffer solution (final concentrations, mM: NaCl 150, RbCl 5, HEPES-Tris 10 (pH7.0) , CaCl₂ 1, MgCl₂ 5, glucose 10), and the uptake initiated by covering over with 0.5 ml of same solution pre-warmed to 37°C and containing 2 uCi ⁸⁶RbCl. […] The cells were lysed with 0.6 ml of 0.1 N NaOH containing 0.1% (w/v) sodium dodecylsulfate, and the radioactivity counted in Instagel (Packard) scintillation medium.
The concentration dependence of HIF inhibition was determined by preincubating cells with HIF at 0.5 units/ml, 0.8 units/ml, 1 unit/ml, 2 units/ml and 4 units/ml concentration for 20 min. ⁸⁶RbCl (2 uCi/well) was then added to run the flux.

Row | Compound | Change in Tension in Rat Aorta, % increase [1] [%] | activation at 0.5 µM (cardiac myocytes; Rattus norvegicus, ouabain 5x10^-7 M, read-out: ASM, % increase) [%] | inhibition at 0.5 µM (cardiac myocytes; Rattus norvegicus, ouabain 5x10^-7 M, read-out: Rate, % decrease) [%] | toxicity on contracting myocytes (decrease in ASM, elevation in position of MR, increase in beating frequency) (cardiac myocytes; ouabain 1 uM) | ASM, % increase (cardiac myocytes; ouabain 5x10^-7 M, listed as Ou) [%] | [Ca²⁺]i [2] [nM] | [Ca²⁺]i ([2]; listed as Ouabain) [nM] | inhibition at 5000 µM ([3]; Rattus norvegicus, read-out: decrease of total ⁸⁶Rb⁺ uptake) [%] | total ⁸⁶Rb⁺ uptake ([3]; 10 min flux, control 810 nmol/mg protein) [nmol/mg]
1 | [Cl-].[K+] [KCl, potassium chloride] | 20 | – | – | – | – | – | – | – | –
2 | C[C@@H]1O[C@@H](O[C@H]2C[C@@H](O)[C@]3(CO)[C@H]4[C@H](O)C[C@]5(C)[C@@H](C6=CC(=O)OC6)CC[C@]5(O)[C@@H]4CC[C@]3(O)C2)[C@H](O)[C@H](O)[C@H]1O [ouabain] | – | 41 | 23 ± 2 | toxic range | 41±3 | 287 ± 15 | 287 ± 15 | 74 | 210
